ChEMBL document CHEMBL1201862, “PubChem BioAssay data set” (2004)
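96-well plates; 48 h exposure; 5 concentrations. Endpoints by linear interpolation between flanking doses. Not reached: highest tested concentration assigned. GI50 = concentration required for 50% inhibition of growth.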 The source made the active and inactive calls. No stated cut-off is given here; in the data, active = GI50 up to about 1.1 µM and inactive = higher.

How the values were obtained:
Experiment in all cases: NCI anticancer screen, dose series, 48 h
[1] = system: MDA-N
[2] = system: ACHN
[3] = system: SK-MEL-2
[4] = system: COLO 205
[5] = system: NCI/ADR-RES
[6] = system: RXF 393
[7] = system: HOP-92
[8] = system: A498
[9] = system: IGROV-1
[10] = system: SR
[11] = system: UACC-257
[12] = system: NCI-H522
[13] = system: BT-549
[14] = system: A549
[15] = system: SF-268
[16] = system: 786-0
[17] = system: SF-295

Row | Structure (SMILES) | GI50 [1] | GI50 [2] | GI50 [3] | GI50 [4] | GI50 [5] | GI50 [6] | GI50 [7] | GI50 [8] | GI50 [9] | GI50 [10] | GI50 [11] | GI50 [12] | GI50 [13] | GI50 [14] | GI50 [15] | GI50 [16] | GI50 [17]
1 | Cc1ccnc2nc(-c3ccc(F)cc3)cc(O)c12 | 3.51 µM (inactive) | 68.1 µM (inactive) | 57.3 µM (inactive) | 19.5 µM (inactive) | > 86.3 µM (inactive) | > 82.8 µM (inactive) | 51.1 µM (inactive) | 63.2 µM (inactive) | 26.4 µM (inactive) | 3.82 µM (inactive) | > 92 µM (inactive) | 9.04 µM (inactive) | > 100 µM (inactive) | 54.2 µM (inactive) | 74.6 µM (inactive) | 42.2 µM (inactive) | 86.3 µM (inactive)
2 | O=C1CC(O)c2cscc21 (stereo unspecified) | > 100 µM (inactive) | > 100 µM (inactive) | > 100 µM (inactive) | 34 µM (inactive) | > 100 µM (inactive) | > 100 µM (inactive) | > 100 µM (inactive) | > 100 µM (inactive) | > 100 µM (inactive) | 29.5 µM (inactive) | > 100 µM (inactive) | 41.3 µM (inactive) | > 100 µM (inactive) | – | > 100 µM (inactive) | > 100 µM (inactive) | > 100 µM (inactive)
3 | c1ccc(-c2c3c(nc4c2CC[C@H]4NC2=NCCN2)[C@@H](NC2=NCCN2)CC3)cc1 | > 100 µM (inactive) | > 100 µM (inactive) | > 100 µM (inactive) | > 100 µM (inactive) | > 100 µM (inactive) | > 100 µM (inactive) | 20.7 µM (inactive) | > 100 µM (inactive) | 40 µM (inactive) | > 100 µM (inactive) | > 90.6 µM (inactive) | > 100 µM (inactive) | > 40.3 µM (inactive) | > 87.9 µM (inactive) | 63.4 µM (inactive) | > 100 µM (inactive) | > 100 µM (inactive)
4 | CCOC(=O)c1c2cccccc-2nc1Nc1cccc2c(C)ccnc12 | > 10 µM (inactive) | 6.14 µM (inactive) | > 10 µM (inactive) | 7.43 µM (inactive) | > 10 µM (inactive) | > 10 µM (inactive) | > 10 µM (inactive) | > 10 µM (inactive) | 4.82 µM (inactive) | 9.95 µM (inactive) | 9.2 µM (inactive) | – | > 10 µM (inactive) | > 10 µM (inactive) | > 10 µM (inactive) | > 10 µM (inactive) | > 10 µM (inactive)
5 | c1ccc(COC2C3COC(O3)C(OCc3ccccc3)C2OCc2ccccc2)cc1 (stereo unspecified) | 63.7 µM (inactive) | 27.5 µM (inactive) | 54.3 µM (inactive) | 41 µM (inactive) | 32.1 µM (inactive) | 45.4 µM (inactive) | 67.1 µM (inactive) | > 100 µM (inactive) | 79.1 µM (inactive) | 4.84 µM (inactive) | 71.1 µM (inactive) | 15.1 µM (inactive) | > 100 µM (inactive) | – | > 100 µM (inactive) | 64.4 µM (inactive) | 94.4 µM (inactive)
6 | FC(F)(F)c1ccc2c(c1)nc(Cc1ccc(Cl)cc1)n2CC1CCCN2CCCCC12 (stereo unspecified) | 1.52 µM (inactive) | 11.5 µM (inactive) | 13.6 µM (inactive) | 3.96 µM (inactive) | 8.18 µM (inactive) | 10.3 µM (inactive) | 7.67 µM (inactive) | 14.2 µM (inactive) | 10.4 µM (inactive) | 2.29 µM (inactive) | 2.92 µM (inactive) | 4.37 µM (inactive) | 11.5 µM (inactive) | 12.6 µM (inactive) | 5.07 µM (inactive) | 7.67 µM (inactive) | 10.5 µM (inactive)
7 | Cc1ccc2nnc(NS(=O)(=O)c3cc(C)c(Cl)cc3S)n2n1 | > 100 µM (inactive) | > 100 µM (inactive) | > 100 µM (inactive) | > 100 µM (inactive) | > 100 µM (inactive) | > 100 µM (inactive) | > 100 µM (inactive) | > 100 µM (inactive) | > 100 µM (inactive) | > 100 µM (inactive) | > 100 µM (inactive) | > 100 µM (inactive) | > 100 µM (inactive) | > 100 µM (inactive) | > 100 µM (inactive) | > 100 µM (inactive) | –
8 | CC1OC(OC2C(OC(=O)[C@]34CCC(C)(C)C[C@H]3C3=CC[C@@H]5[C@@]6(C)CC[C@H](OC7OC(CO)C(O)C(O)C7OC7OC(CO)C(O)C(O)C7O)C(C)(C)[C@@H]6CC[C@@]5(C)[C@]3(C)CC4)OCC(O)C2O)C(O)C(OC2OCC(O)C(O)C2O)C1OC1OCC(O)C(OC2OCC(O)C(O)C2O)C1O (stereo partly specified) | 2.27 µM (inactive) | 9.4 µM (inactive) | 8.57 µM (inactive) | 2.77 µM (inactive) | 11 µM (inactive) | 16.4 µM (inactive) | 6.84 µM (inactive) | 2.24 µM (inactive) | 19.1 µM (inactive) | 5.19 µM (inactive) | 3.78 µM (inactive) | 3.19 µM (inactive) | 8.28 µM (inactive) | 3.7 µM (inactive) | 9.51 µM (inactive) | 12.2 µM (inactive) | 7.62 µM (inactive)
9 | Cc1cn(C2CC(n3cc(Cn4cc(I)c(=O)[nH]c4=O)nn3)C(CO)O2)c(=O)[nH]c1=O (stereo unspecified) | > 100 µM (inactive) | > 100 µM (inactive) | > 100 µM (inactive) | > 100 µM (inactive) | > 100 µM (inactive) | > 100 µM (inactive) | > 100 µM (inactive) | > 100 µM (inactive) | – | < 0.01 µM (active) | > 100 µM (inactive) | – | > 100 µM (inactive) | > 100 µM (inactive) | > 100 µM (inactive) | – | > 100 µM (inactive)
10 | O=C(N[C@@H](Cc1ccccc1)B(O)O)[C@H](Cc1cccc2ccccc12)NC(=O)N1CCOCC1 | < 0.01 µM (active) | 0.0105 µM (active) | 0.00125 µM (active) | 0.00552 µM (active) | 0.938 µM (active) | 0.00167 µM (active) | 0.00233 µM (active) | 0.00261 µM (active) | 0.00618 µM (active) | 0.00131 µM (active) | 0.00219 µM (active) | < 0.01 µM (active) | 0.000468 µM (active) | 0.0262 µM (active) | 0.00161 µM (active) | 0.00451 µM (active) | 0.00478 µM (active)
11 | [O-]/[N+](=C\c1ccccc1OC(=S)S)c1ccc(Cl)cc1 | 18 µM (inactive) | 20.6 µM (inactive) | 20 µM (inactive) | 3.92 µM (inactive) | 18.5 µM (inactive) | 45.7 µM (inactive) | 2.87 µM (inactive) | 59.8 µM (inactive) | 12.1 µM (inactive) | 21.8 µM (inactive) | 21.5 µM (inactive) | 16.8 µM (inactive) | 24.1 µM (inactive) | > 100 µM (inactive) | 19.5 µM (inactive) | 14.6 µM (inactive) | 0.177 µM (active)
12 | Cc1cc(C#N)c(Nc2ccc(F)cc2[N+](=O)[O-])s1 | > 100 µM (inactive) | 83.8 µM (inactive) | – | > 100 µM (inactive) | > 100 µM (inactive) | 20.2 µM (inactive) | 33.4 µM (inactive) | > 100 µM (inactive) | – | > 100 µM (inactive) | > 100 µM (inactive) | > 100 µM (inactive) | 24.4 µM (inactive) | > 100 µM (inactive) | 25.5 µM (inactive) | 54.5 µM (inactive) | 30.8 µM (inactive)
13 | C[C@]12CC[C@H](O)CC1=CC[C@@H]1[C@@H]2CC[C@]2(C)NC(=O)/C(=C\c3ccccc3)C[C@@H]12 | 24.3 µM (inactive) | 17.4 µM (inactive) | 12.6 µM (inactive) | 16 µM (inactive) | 18.5 µM (inactive) | 13.5 µM (inactive) | – | 15.2 µM (inactive) | 15.9 µM (inactive) | 28.7 µM (inactive) | 23.3 µM (inactive) | 10.5 µM (inactive) | 17 µM (inactive) | 14.6 µM (inactive) | 15.5 µM (inactive) | 19.8 µM (inactive) | 16.5 µM (inactive)
14 | c1ccc(C(=NCCC2CNc3ccccc32)c2ccccc2)cc1 (stereo unspecified) | > 100 µM (inactive) | > 100 µM (inactive) | > 100 µM (inactive) | > 100 µM (inactive) | > 100 µM (inactive) | > 100 µM (inactive) | > 100 µM (inactive) | > 100 µM (inactive) | 89.3 µM (inactive) | > 100 µM (inactive) | > 100 µM (inactive) | > 100 µM (inactive) | > 100 µM (inactive) | > 100 µM (inactive) | – | > 100 µM (inactive) | > 100 µM (inactive)
15 | O=C(N/N=C\c1ccc([N+](=O)[O-])cc1)Nc1ccccc1 | > 100 µM (inactive) | – | > 100 µM (inactive) | > 100 µM (inactive) | > 100 µM (inactive) | > 100 µM (inactive) | > 100 µM (inactive) | > 100 µM (inactive) | > 100 µM (inactive) | > 100 µM (inactive) | > 100 µM (inactive) | – | > 100 µM (inactive) | – | – | – | > 100 µM (inactive)
16 | COc1ccc(C2(C3c4cc(OC)c(OC)cc4CCN3C)SCCCS2)cc1O (stereo unspecified) | > 100 µM (inactive) | – | > 100 µM (inactive) | > 100 µM (inactive) | 94 µM (inactive) | > 100 µM (inactive) | 76.2 µM (inactive) | > 100 µM (inactive) | > 100 µM (inactive) | 68.1 µM (inactive) | > 100 µM (inactive) | 41.7 µM (inactive) | > 100 µM (inactive) | > 100 µM (inactive) | > 100 µM (inactive) | > 100 µM (inactive) | 71.8 µM (inactive)
17 | CN1CCC(CNC(=O)CCCCCCCCC(=O)NCC2(c3ccccc3)CCN(C)CC2)(c2ccccc2)CC1 | > 100 µM (inactive) | > 100 µM (inactive) | > 100 µM (inactive) | 69.7 µM (inactive) | > 100 µM (inactive) | > 100 µM (inactive) | – | > 100 µM (inactive) | > 100 µM (inactive) | > 100 µM (inactive) | 38.8 µM (inactive) | > 100 µM (inactive) | > 100 µM (inactive) | > 100 µM (inactive) | 14.3 µM (inactive) | 52.4 µM (inactive) | > 100 µM (inactive)
